Assay results reported in patent US20240263153A1, “INTEGRASE COMPOSITIONS AND METHODS” (Flagship Pioneering Innovations Vi, LLC, priority 2021, published 2024).

What follows are molecules tested on mouse liver (assay: LNP-mediated delivery of RNA to the mouse liver (luciferase activity of liver homogenate)). Conditions: C57BL6 male mice, i.v. 1 mg/kg, Firefly luciferase mRNA-LNPs, liver at 6, 24, 48 hours.
Assay type: in vivo
Experimental: To measure the effectiveness of LNP-mediated delivery of firefly luciferase containing particles to the liver, LNPs were formulated and characterized as described herein and tested in vitro prior to administration to mice. C57BL6 male mice (Charles River Labs) at approximately 8 weeks of age were dosed with LNPs via intravenous (i.v.) route at 1 mg/kg. Vehicle control animals were dosed i.v. with 300 μL phosphate buffered saline. Mice were injected via intraperitoneal route with dexamethasone at 5 mg/kg 30 minutes prior to injection of LNPs. Tissues were collected at necropsy at or 6, 24, 48 hours after LNP administration with a group size of 5 mice per time point. Liver and other tissue samples were collected, snap-frozen in liquid nitrogen, and stored at −80° C. until analysis.
Frozen liver samples were pulverized on dry ice and transferred to homogenization tubes containing lysing matrix D beads (MP Biomedical). Ice-cold 1× luciferase cell culture lysis reagent (CCLR) (Promega) was added to each tube and the samples were homogenized in a Fast Prep-24 5G Homogenizer (MP Biomedical) at 6 m/s for 40 seconds. The samples were transferred to a clean microcentrifuge tube and clarified by centrifugation. Prior to luciferase activity assay, the protein concentration of liver homogenates was determined for each sample using the Pierce™ BCA Protein Assay Kit (ThermoFisher Scientific) according to the manufacturer's instructions. Luciferase activity was measured with […] (total protein) of liver homogenate using the luciferase assay reagent (Promega) according to manufacturer's instructions using an i3X SpectraMax plate reader (Molecular Devices). […] Reporter activity by the various formulations followed the ranking LIPIDV005>LIPIDV004>LIPIDV003. RNA expression was transient and enzyme levels returned near vehicle background by 48 hours. Post-administration. This assay validated the use of these ionizable lipids and their respective formulations for RNA systems for delivery to the liver.

Row | SMILES | luciferase reporter activity in liver samples
1 | CCCCC/C=C\C/C=C\CCCCCCCC(=O)OCC(COC(=O)CCC(OCCCCCCCC)OCCCCCCCC)COC(=O)OCCCN(CC)CC (stereo not drawn) [LIPIDV003, (9Z,12Z)-3-((4,4-bis(octyloxy)butanoyl)oxy)-2-((((3-(diethylamino)propoxy)carbonyl)oxy)methyl)propyl octadeca-9,12-dienoate] | LIPIDV005>LIPIDV004>LIPIDV003
2 | CCCCCCCCCOC(=O)CCCCCCCN(CCO)CCCCCCCC(=O)OC(CCCCCCCC)CCCCCCCC [LIPIDV004, Heptadecan-9-yl 8-((2-hydroxyethyl)(8-(nonyloxy)-8-oxooctyl)amino)octanoate] | LIPIDV005>LIPIDV004>LIPIDV003
3 | CCCCCCCC(=O)N(CCCN(C)C)C(CCCCCCCCC(=O)OC(CCCCCC)CCCCCC)CCCCCCCCC(=O)OC(CCCCCC)CCCCCC [LIPIDV005] | LIPIDV005>LIPIDV004>LIPIDV003
